Holding throughout (assay): inhibition of tumour cell growth, NCI panel, 48 h
Assay [1] concerns IGROV1 ovarian.
The test system of assay [2] is SNB-75 CNS.
Assay [3] concerns SK-MEL-28 melanoma.
Assay [4] concerns T-47D breast.
For assay [5], the system named is MCF7 breast.
Assay [6] concerns TK-10 renal.
Assay [7] relates to HL-60(TB) leukemia.
Assay [8] concerns NCI-H460 lung.
Assay [9] concerns SR leukemia.
In assay [10] the test system is MDA-N.

SMILES strings stand for the structures. Several values for one entry are separate records, joined by “and”; a condition that tells them apart may be missing. Equal entries are not always repeated.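 96-well plates; 48 h exposure; 5 concentrations. Endpoints by linear interpolation between flanking doses. Not reached: highest tested concentration assigned. GI50 is the concentration that inhibits growth by half. TGI marks complete inhibition of growth.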

For the molecule `COC(=O)[C@]1(C)CCCn2c(=O)n(-c3ccccc3)c(=O)n21`, the TGI in assay [1], in assay [2], in assay [3], in assay [4], in assay [5] and in assay [6] was more than 100 µM each time.

`c1cnc2c(c1)-n1cccc1C1(CCOCC1)NN2`: the TGI in [1], in [7], in assay [2], in assay [3], in [8] and in assay [9] was more than 100 µM each time. The TGI in assay [6] is more than 100 µM.

For the molecule `O=C(NCc1cn(Cc2cccc(Oc3ccccc3)c2)nn1)c1cccnc1Nc1ccccc1`, the GI50 in assay [1] was 5.86 µM; in assay [7], 3.74 µM; in [2], 1.94 µM; in [3] it was 4.93 µM; in assay [4], 5.4 µM; in assay [8], 2.85 µM. For the same molecule, the GI50 in assay [9] is 2.57 µM; in assay [5] it was 3.67 µM; in assay [6], 4.3 µM. Further, the TGI is more than 100 µM in assay [1]; 19.5 µM in assay [7]; 9.96 µM in [2]; more than 100 µM in [3]; 63.2 µM in assay [4]; 10.5 µM in assay [8]. The TGI was more than 100 µM in assay [9], more than 100 µM in [5] and 28.4 µM in assay [6].

As for `CCOC(=O)c1nc2c3c(ncn2n1)Oc1c(c(-c2ccccc2)nn1-c1ccccc1)C3c1ccc(OC)c(OC)c1` (centres undefined), the TGI in [1] is more than 100 µM; in assay [2], 66.6 µM; in assay [10] it was more than 100 µM; in assay [3], more than 100 µM; in [8] it was more than 100 µM; in assay [9], more than 100 µM. Besides, the TGI in assay [5] and in assay [6] was more than 100 µM throughout.

For `CC(C)(C)C1CC[C@H]2c3c([nH]c4ccc(Br)cc34)[C@H]3C(=O)N(c4ccccc4)C(=O)[C@H]3[C@H]2C1` (some centres undefined), the TGI in assay [1] was more than 100 µM; in [7] it was 35.1 µM; in assay [2] it was 54.9 µM; in [3] it was more than 100 µM; in assay [8], 38.9 µM; in assay [9], 12.1 µM. For the same molecule, in [6], the TGI is more than 100 µM.

Take `COc1ccc(C[C@@H]2CN(C(=O)c3ccccc3)[C@H](Cc3ccc(O)cc3)CN2C(=O)c2ccccc2)cc1Br`: the TGI in assay [1], in [7], in assay [2], in assay [3], in assay [4] and in assay [8] was more than 100 µM throughout. Moreover, the TGI in assay [9], in assay [5] and in assay [6] was more than 100 µM throughout.

As for `Oc1c(Cl)c2nccnc2c2ccccc12`, the TGI in [1], in assay [7], in assay [2], in assay [3], in [8] and in [6] was more than 100 µM throughout.

For `CS(=O)(=O)NNS(=O)(=O)c1ccc(Br)cc1`, the TGI in assay [1], in [7], in assay [2], in [3], in assay [8] and in assay [6] was more than 100 µM each time.

For `CC12CC3c4ccccc4CN1C3(c1ccccc1)OC2=O` (centres undefined), the TGI in assay [1], in assay [7], in assay [2], in assay [3], in assay [4] and in assay [6] was more than 100 µM throughout.

On to `COc1ccc(-c2nc3ncccn3c2-c2ccc(S(C)=O)cc2)cc1` (centres undefined), for which the TGI in assay [1], in assay [7], in assay [2], in assay [10], in assay [3] and in assay [8] was more than 100 µM in each case. Moreover, the TGI in assay [9] and in assay [5] was more than 100 µM in each case.

Consider `c1ccc2[nH]c(-c3nc4ccccc4o3)nc2c1`, for which the TGI in assay [1], in assay [7], in assay [2], in assay [3], in assay [8] and in assay [9] was more than 100 µM each time. In assay [6], this molecule returned a TGI of more than 100 µM.

In the case of `CC(C)(C)C1CCC2c3c([nH]c4ccccc34)C3C(=O)N(c4cc(Br)cc(Br)c4)C(=O)C3C2C1` (centres undefined), the TGI in [1] is more than 100 µM; in [7], 5.82 µM; in assay [10] it was more than 100 µM; in [3], 25.9 µM; in assay [8], 74.2 µM; in assay [9], 82.4 µM. Further, the TGI in [5] came to 17.5 µM; in assay [6], 59.2 µM.

As for `Cc1c2c(n3c(nc4ccccc43)c1C#N)N(c1ccc(Cl)cc1)CC2`, the TGI in [1], in [7], in assay [2], in assay [10], in [3] and in assay [8] was more than 100 µM throughout. Further, the TGI in [5] and in assay [6] was more than 100 µM each time.

For `Cc1cc(Br)c(N2C3=C(CC4=C2CCCC4=O)C(=O)CCC3)c(Br)c1`, the TGI in assay [1], in assay [7], in assay [2], in assay [3], in assay [8] and in assay [9] was more than 100 µM throughout. For the same molecule, the TGI in [5] and in assay [6] was more than 100 µM in each case.

Regarding `N#CC(c1ccc(O)cc1)N1CCN(C(C#N)c2ccc(O)cc2)CC1` (centres undefined), the TGI in assay [1] was more than 100 µM; in [7], more than 100 µM; in assay [2] it was 48.1 µM; in assay [3], more than 100 µM; in [4] it was more than 82.9 µM; in assay [9], more than 100 µM. Besides, the TGI in assay [5] and in assay [6] was more than 100 µM throughout.

In the case of `COc1ccc(-n2sc3ncc(-c4ccccc4)cc3c2=O)cc1`, the TGI is 78.8 µM in assay [1]; more than 100 µM in [7]; more than 100 µM in assay [2]; more than 100 µM in [3]; more than 100 µM in assay [4]; more than 100 µM in [8]. Also, the TGI in [5] and in assay [6] was more than 100 µM each time.

Take `O=C(CCN1CCCCC1CCO)Nc1ccc2c(c1)C(=O)c1ccc(NC(=O)CCN3CCCCC3CCO)cc1C2=O` (centres undefined): the TGI amounted to 18.9 µM in assay [1]; 19 µM in assay [7]; 9.83 µM in [2]; 23.5 µM in assay [3]; 20.4 µM in [8]; 29.3 µM in [9]. In assay [6], this molecule showed a TGI of 14.6 µM.

As for `O=c1c2cc([N+](=O)[O-])ccc2n2n1Cc1ccccc1CC2`, the TGI in assay [1], in [7], in [10], in assay [3], in assay [8] and in assay [9] was more than 100 µM in each case. Also, the TGI in assay [5] and in assay [6] was more than 100 µM in each case.

Turning to `COc1ccc(NC(=S)NN=C(C)c2cccc(C(C)=NNC(=S)Nc3ccc(OC)cc3)n2)cc1`, the TGI in [1], in assay [7], in assay [2], in assay [3], in assay [4] and in [8] was more than 100 µM throughout. Also, the TGI in [9] and in [6] was more than 100 µM in each case.

Turning to `N#CI1OC(=O)c2ccccc21`, the TGI in assay [1], in assay [7], in [2], in assay [3], in assay [4] and in assay [8] was more than 100 µM each time. In addition, the TGI in [9], in assay [5] and in [6] was more than 100 µM in each case.

`COc1c(C2(c3ccc(F)cc3)SCCCS2)c(=O)c1=O`: the TGI in [7], in [2], in assay [10], in assay [3], in assay [8] and in [5] was more than 100 µM throughout. Besides, the TGI in assay [6] was more than 100 µM.

Consider `[N-]=N[N+]#I1OC(C(F)(F)F)(C(F)(F)F)c2ccccc21`, for which the TGI in assay [1] is 32.7 µM; in assay [7], 30.6 µM; in [2], 32.5 µM; in assay [3] it was 28.9 µM; in assay [4], 27.7 µM; in assay [9] it was 68.3 µM. Also, the TGI in assay [5] was 27.3 µM; in assay [6] it was 32 µM.

On to `CCOn1cc(C[C@@]2(O)C(=O)OC3[C@@H](O)CO[C@@]32O)c2ccccc21` (some centres undefined), for which the TGI in [1], in assay [7], in assay [2], in [3], in assay [4] and in assay [8] was more than 100 µM each time. For the same molecule, the TGI in [9], in assay [5] and in assay [6] was more than 100 µM throughout.

For the molecule `COc1c2nc(CCl)n(C)c(=O)c2c(OC)c2c(=O)n(C)c(CCl)nc12`, the TGI worked out at 4.56 µM in assay [1]; 2.47 µM in assay [7]; 3.8 µM in assay [2]; 3.31 µM in assay [10]; 3.94 µM in assay [3]; 4.66 µM in assay [8]. In addition, the TGI in [5] amounted to 2.36 µM; in assay [6], 1.76 µM.

On to `C=C1CC2CC[C@@]34C[C@@H]5O[C@@H]6C(O[C@H]7CC[C@H](CC(=O)OC8[C@@H](C)C9OC%10C[C@]%11(C[C@@H]%12O[C@@]%13(C[C@@H](C)[C@@H]%12O%11)C[C@H](C)[C@@H]%11OC%12CC(C(O)CO)OC%12C[C@@H]%11O%13)OC%10CC9O[C@H]8C[C@H]8O[C@@H](CC[C@@H]1O2)C[C@@H](C)C8=C)O[C@@H]7[C@@H]6O3)C5O4` (some centres undefined), for which the GI50 in assay [1], in assay [7] and in assay [8] was less than 0.000148 µM in each case. The TGI in assay [1] was more than 1.48 µM; in [2] it was 0.00367 µM; in assay [8], 0.00317 µM and 0.028 µM; in [5], more than 1.48 µM.

For the molecule `CCOC(=O)c1ccc(NC2Oc3cc4c(cc3C(c3cc(OC)c(OC)c(OC)c3)C2C)OCO4)cc1` (centres undefined), the TGI was more than 51 µM in assay [1]; 0.564 µM in assay [7]; 0.704 µM in assay [2]; more than 100 µM in assay [3]; more than 100 µM in assay [4]; more than 100 µM in assay [8]. In addition, the TGI is more than 48.5 µM in assay [5] and 99.5 µM in assay [6].

With `COC(=O)Cc1c([C@@H]2Nc3ccccc3[C@H]2CC(=O)OC)[nH]c2ccccc12`, the TGI is more than 100 µM in assay [1]; more than 100 µM in assay [2]; more than 100 µM in assay [10]; more than 100 µM in [3]; 65.5 µM in assay [8]; 71.4 µM in assay [9]. In addition, the TGI in assay [5] and in assay [6] was more than 100 µM in each case.

In the case of `On1c(-c2ccccc2)c(-c2c(-c3ccccc3)n(O)c3ccccc23)c2ccccc21`, the TGI in [7] is more than 100 µM; in assay [2], 94 µM; in [3] it was more than 100 µM; in assay [8] it was 49.4 µM; in [6], more than 100 µM.

For `CN(C)[C@@H]1C(=O)C(C(N)=O)=C(O)[C@@]2(O)C(=O)C3=C(O)c4c(O)cccc4C[C@H]3C[C@@H]12`, the TGI in assay [1] was found to be 4.8 µM; in assay [2], 2.98 µM; in assay [3], 3.19 µM; in [8], 6.48 µM; in [9], 6.05 µM; in [6] it was 7.53 µM.

On to `COC(=O)/C(=C/c1ccc(OC)cc1)C(C(=O)O)=C(C)C`, for which the TGI in [1], in assay [7], in [3], in assay [8], in [9] and in assay [6] was more than 100 µM each time.

On to `COc1cc2c(cc1O)[C@H](C)C(c1ccc(Cl)cc1)O2` (some centres undefined), for which the TGI in assay [1] was more than 100 µM; in [7], 35.6 µM; in [2], 43.3 µM; in assay [3], more than 100 µM; in assay [8] it was 33.4 µM; in [6], 78.8 µM.

For the molecule `C=CCN1C(=O)CS/C1=N\NC(=O)c1c(C)nc2sccn12`, the TGI in [1], in assay [7], in assay [3], in [8], in [9] and in [6] was more than 100 µM throughout.

Values taken from PubChem BioAssay (NCI).
